Data: patent US20050148553A1, “Use of tigecycline, alone, or in combination with rifampin to treat osteomyelitis and/or septic arthritis” (priority 2003, published 2005)
≈ marks a conversion by molar mass, not a printed value. Where “and” joins values, the source holds several entries; their conditions need not be identical. Equal values may be shown once.

Columns and labels:
M. abcessus = test: Susceptibility/MIC of patient isolate, compassionate use study; assay type: cell-based, Mycobacterium abscessus
[1] = system: methicillin-resistant S. aureus; test: microbe, parasite or virus in culture; assay type: cell-based, Staphylococcus aureus; settings: Staphylococcus aureus, MRSA
Experimental: The minimum inhibitory concentrations (MIC) of tigecycline, vancomycin and rifampin were determined using an antibiotic two-fold tube-dilution method. The minimum bactericidal concentrations were also determined. The limits of sensitivity of this method were 25 μg/ml to 0.20 μg/ml.

[2] = system: methicillin-resistant S. aureus
Experimental: Preparation of the Infective Media: S. aureus was incubated overnight in Mueller Hinton Broth (Difco Laboratories, Detroit, Mich.) medium spiked with 40 μg/ml oxacillin, at 37° C. The bacterial concentration of the culture was adjusted to 10^7 CFU's/ml.
Rabbit Infection Procedure: New Zealand white rabbits (Ray Nicholl's Rabbitry, Lumberton, Tex.), eight to 12 weeks old and weighing 2.0 to 3.5 kg, were utilized for the study. After anesthesia was given, an 18-gauge needle was inserted percutaneously through the lateral aspect of the left tibial metaphysis into the intramedullary cavity. Next, 0.15 ml of 5% sodium morrhuate (American Regent Laboratories, Inc., Shirley, N.Y.), 0.1 ml of S. aureus (10^7 CFU/ml), and 0.2 ml of sterile, normal saline, 0.9%, were injected sequentially.
Group 1 (control group): infected but left untreated for the duration of the study. Group 2: rabbits were treated for 4 weeks with subcutaneous vancomycin at 30 mg/kg twice daily. Group 3: rabbits were treated for 4 weeks with subcutaneous vancomycin at 30 mg/kg twice daily plus oral rifampin at 40 mg/kg twice daily in 0.5% methylcellulose. Group 4: rabbits were treated for 4 weeks with subcutaneous tigecycline at 14 mg/kg twice daily. Group 5: rabbits were treated for 4 weeks with subcutaneous tigecycline at the same dose as in the rabbits in Group 4, plus oral rifampin at 40 mg/kg twice daily in 0.5% methylcellulose. […] Group 6: rabbits were treated for 1 week with subcutaneous tigecycline at the same dose as in Group 4, but were sacrificed 3 hours after administration of the last dose. At that time, blood and infected bone samples were collected and tigecycline concentration was determined. Groups 1 to 5 were left untreated for 2 weeks after treatment phase of the experiment and sacrificed at 8 weeks after infection.
Radiographs of bilateral tibias were taken at initiation of therapy (2 weeks after infection), at the end of antibiotic therapy (6 weeks after infection), and at sacrifice (8 weeks after infection). Radiographs were scored according to a visual scale (Table 1) by three investigators, each blinded to the treatment group, and the grades were averaged.
After sacrifice, gross cultures were performed for right and left tibias. Quantitative counts of S. aureus, in CFUs per gram, of left tibial bone and marrow were determined for all study groups.
Culture Preparation: The bone marrow and the intramedullary canal of bilateral tibias were swabbed with sterile cotton tip applicators for gross cultures analysis of left tibias and quality assurance checks of right tibias. The inoculated applicator was streaked onto blood plates and then placed into 5 ml of sterile TSB. The plates and tubes were then incubated at 37° C. for 24 hours and growth and/or turbidity was recorded.
The bone marrow was placed into a sterile, 50 ml centrifuge tube and weighed. The bone fragments were broken into 0.5 cm^2 chips, placed into a sterile, 50 ml centrifuge tube, and the final product weighed. Normal sterile saline, 0.9%, was added in a 3 to 1 ratio (3 ml saline/gram of bone or marrow) and the suspensions were vortexed for 2 minutes. Six ten-fold dilutions of each suspension were prepared with sterile, normal saline, 0.9%. Twenty-microliter samples of each dilution, including the initial suspension, was plated, in triplicate, onto blood agar plates and incubated at 37° C. for 24 hours. CFUs were counted at the greatest dilution for each tibia sample.

[3] = Adverse events and weight variance in infected treated rabbits
Description: All rabbits were monitored weekly for weight variance. […] The key for FIGS. 4A and B is as follows: Control=control group, no treatment; Vancomycin=subcutaneous vancomycin treated group; Vanco+Rifampin=subcutaneous vancomycin with oral rifampin treated group; Gar-936=subcutaneous Gar-936 treated group; Gar-936+Rifampin=subcutaneous Gar-936 with oral Rifampin treated group.

[4] = Mass balance study, 5 mg/kg intravenous dose; assay type: in vivo, Sprague-Dawley rats; settings: male rats
[5] = Whole body autoradiography after 30-minute 3 mg/kg IV infusion of [^14C]-tigecycline; assay type: in vivo, Long-Evans rats
Experimental: Male Sprague-Dawley and Long-Evans rats were obtained from Charles River Breeding Laboratories, Raleigh, N.C., and were quarantined for at least one week prior to the start of the study. […] The dosing solution was diluted and radioassayed directly in Ultima Gold scintillation counting cocktail (Packard Inc.). […] All pumps were calibrated prior to the administration of the compound. Rats were anesthetized with isoflurane prior to cardiac puncture exsanguination at the prescribed times after dosing. Sprague-Dawley and Long-Evans rats were sacrificed one per time point at 0.5, 8.5, 24, 72, 168 and 336 hr post-dose. Immediately following euthanasia, each rat was totally immersed in a bath of hexane and dry ice (−75° C.) until frozen. Each carcass was dried and stored at −30° C. until embedded. […] Each frozen rat was sagitally sectioned at −20° C. A sufficient number of sections were collected to ensure sampling of all tissues of interest. The sections were dehydrated overnight in a cryochamber and then rapidly transferred to a dessicator containing CaSO4 to prevent condensation of atmospheric moisture while equilibrating to room temperature. The sections were mounted on cardboard and labeled with [^14C]-labeled black ink with a unique identification number. […] A small piece of Scotch tape was placed over the dried radioactive ink to prevent the contamination of the storage phosphor screens. Phosphor imaging plates, BAS-SR 2025 (Fuji Photo Film Co., Japan) were exposed to bright visible light for 20 minutes using an IP eraser (Raytest, USA Inc., New Castle, Del.) to remove background radiation. Sections and calibration blood standards were concurrently placed in direct contact with Ips and exposed for 7 days. All sections were stored at room temperature in a lead shielding box to minimize background levels. Phosphor images were generated using a Fujifilm BAS-5000 Bio-Imaging Analyzer and quantitated by MCID M2 Software, version 3.2 (Imaging Research Inc., St. Catherines, Ontario, Canada). The STDs and QCs were analyzed using the circular sampling tool in the MCID software program. Areas of interest in whole-body sections were manually outlined with the regional sampling tool to generate count data. Radioactive concentrations in select tissues were determined by digital analysis of the resulting autoradiograms on the basis of a calibration curve. […] The linear regression curve was then used to determine the concentration of unknown radioactivity of study samples. […] Blood samples were combusted using a Model 307 sample oxidizer (Packard Instrument Company). […] Research Triangle Park, N.C.), which applies a model-independent approach and standard procedures as described in Gibaldi and Perrier. Gibaldi, Pharmacokinetics, 1982. […] For IV infusion dosing, C30 min was the concentration at 30 minutes, the first sampling time point. The maximum plasma concentration (Cmax) and the corresponding time of peak concentration following IV administration were obtained directly by numerical inspection from the individual concentration-time data. The terminal half-life was calculated by the ratio of ln2/λz where λz is derived from the terminal slope of the concentration time curve. The area under the plasma concentration versus time curve from zero to infinity was calculated using the trapezoidal rule, where Clast is the last measurable plasma concentration. Tissue to plasma concentration ratios were calculated according to the following equation: Ctissue/Cplasma, where Ctissue equals the drug concentration in tissue (ng equiv./g), and Cplasma equals the drug concentration in plasma (ng equiv./g).

[6] = average grade, t=14 versus t=56 days
[7] = individual rabbits, left tibia, 8 weeks after infection

CN(C)c1cc(NC(=O)CNC(C)(C)C)c(O)c2c1C[C@H]1C[C@H]3[C@H](N(C)C)C(O)=C(C(N)=O)C(=O)[C@@]3(O)C(O)=C1C2=O [Tigecycline]
susceptibility of the organism (M. abcessus; M. abscessus patient isolate): susceptible | MIC (M. abcessus; Mycobacteroides abscessus, M. abcessus from a human patient, read-out: minimum inhibitory concentration): 0.25 µg/mL | MBC ([1]; read-out: minimum bactericidal concentration (MBC)): 0.2 µg/mL (≈ 0.341 µM) | MIC ([1]; read-out: minimum inhibitory concentration (MIC), MRSA study strain, inoculum 10^6 CFU/ml): < 0.2 µg/mL | radiographic improvement (grade) [2, 6]: 0.9+/−0.1 | radiographic improvement (percent) [2, 6]: 40.9% | rabbits/samples positive for MRSA in bone ([2]; bone cultures at sacrifice): 1 out of 10 and one rabbit of 10 | proportion of positive cultures in marrow ([2]; compared with 0.33 (5/15) in control group): 0 | bacterial outcome in bone and marrow, in words ([2]; end of study, MRSA infected rabbits): lower colony forming units in bone and marrow | Counts (CFU/gm) Bone [2, 7]: 178.6 CFU/gm and 0 CFU/gm (9×) | Counts (CFU/gm) Marrow [2, 7]: 0 CFU/gm | rabbits infected in bone marrow ([2]; marrow cultures at sacrifice): no infection | average radiographic grade versus control group ([2]; t=56 days, p<0.05): significantly lower | average bacterial concentration of the group ([2]; tibia bone): 20 CFU/gram bone | symptoms of gastric dysfunction ([3]; approximately 1.0-1.5 weeks post-antibiotic initiation): mild to severe symptoms of gastric dysfunction | mean weight gain ([3]; infected rabbits after antibiotic treatment): -0.05 kg | rabbits that died before completion of treatment ([3]; infected rabbits, 4 weeks treatment): 5 | dosage causing relevant morbidity and mortality ([3]; rabbit model, data not shown): higher than 14 mg/kg per day

CN(C)c1cc(NC(=O)CNC(C)(C)C)c(O)c2c1C[C@H]1C[C@H]3[C@H](N(C)C)C(O)=C(C(N)=O)C(=O)[C@@]3(O)C(O)=C1C2=O [[^14C]-Tigecycline]
recovery of radioactivity [4]: 89.4±2.50% | AUC ([5]; Blood): 21954 Ng eq hr/g | T1/2 ([5]; Blood): 62 h | Mean concentration of total radioactivity ([5]; Blood, 0.5 Hrs): 1296 ng equiv./g | Tissue:Plasma Ratio ([5]; Blood, 0.5 Hrs): 1.33 | Mean concentration of total radioactivity ([5]; Blood, 24 Hrs): 340 ng equiv./g | Tissue:Plasma Ratio ([5]; Blood, 24 Hrs): 4.81 | Mean concentration of total radioactivity ([5]; Blood, 72 Hrs): 11.8 ng equiv./g | Tissue:Plasma Ratio ([5]; Blood, 72 Hrs): 5.05 | Mean concentration of total radioactivity ([5]; Blood, 168 Hrs): 2.72 ng equiv./g | Tissue:Plasma Ratio ([5]; Blood, 168 Hrs): 5.05 | Mean concentration of total radioactivity ([5]; Blood, 336 Hrs): 1.24 ng equiv./g | AUC ([5]; Blood, first AUC column): 21843 Ng eq hr/g | AUC ([5]; Plasma): 12938 Ng eq hr/g | T1/2 ([5]; Plasma): 19 h | Mean concentration of total radioactivity ([5]; Plasma, 0.5 Hrs): 975 ng equiv./g | Tissue:Plasma Ratio ([5]; Plasma, 0.5 Hrs): 1.00 | Mean concentration of total radioactivity ([5]; Plasma, 24 Hrs): 70.5 ng equiv./g | Tissue:Plasma Ratio ([5]; Plasma, 24 Hrs): 1.00 | Mean concentration of total radioactivity ([5]; Plasma, 72 Hrs): 4.31 ng equiv./g | Tissue:Plasma Ratio ([5]; Plasma, 72 Hrs): 1.00 | Mean concentration of total radioactivity ([5]; Plasma, 168 Hrs): <1.03 ng equiv./g | Tissue:Plasma Ratio ([5]; Plasma, 168 Hrs): 1.00 | Mean concentration of total radioactivity ([5]; Plasma, 336 Hrs): <1.03 ng equiv./g | AUC ([5]; Plasma, first AUC column): 12923 Ng eq hr/g | AUC ([5]; Skin): 109296 Ng eq hr/g | Cmax ([5]; Skin): 1997 Ng equiv/g | T1/2 ([5]; Skin): 473 h | tissue concentration at 336 hours as % of Cmax ([5]; Skin): 8% | Mean concentration of total radioactivity ([5]; Skin, 0.5 Hrs): 2502 ng equiv./g | Tissue:Plasma Ratio ([5]; Skin, 0.5 Hrs): 2.05 | Mean concentration of total radioactivity ([5]; Skin, 24 Hrs): 2363 ng equiv./g | Tissue:Plasma Ratio ([5]; Skin, 24 Hrs): 8.76 | Mean concentration of total radioactivity ([5]; Skin, 72 Hrs): 1787 ng equiv./g | Tissue:Plasma Ratio ([5]; Skin, 72 Hrs): 179 | Mean concentration of total radioactivity ([5]; Skin, 168 Hrs): 351 ng equiv./g | Tissue:Plasma Ratio ([5]; Skin, 168 Hrs): 179 | Mean concentration of total radioactivity ([5]; Skin, 336 Hrs): 211 ng equiv./g | AUC ([5]; Skin, first AUC column): 58287 Ng eq hr/g | AUC ([5]; Uveal Tract): 233288 Ng eq hr/g | Cmax ([5]; Uveal Tract): 2502 Ng equiv/g | T1/2 ([5]; Uveal Tract): 201 h | tissue concentration at 336 hours as % of Cmax ([5]; Uveal Tract): 1% | Mean concentration of total radioactivity ([5]; Uveal Tract, 0.5 Hrs): 1997 ng equiv./g | Tissue:Plasma Ratio ([5]; Uveal Tract, 0.5 Hrs): 2.57 | Mean concentration of total radioactivity ([5]; Uveal Tract, 24 Hrs): 124 ng equiv./g | Tissue:Plasma Ratio ([5]; Uveal Tract, 24 Hrs): 25.7 | Mean concentration of total radioactivity ([5]; Uveal Tract, 72 Hrs): 96.5 ng equiv./g | Tissue:Plasma Ratio ([5]; Uveal Tract, 72 Hrs): 393 | Mean concentration of total radioactivity ([5]; Uveal Tract, 168 Hrs): 74.8 ng equiv./g | Tissue:Plasma Ratio ([5]; Uveal Tract, 168 Hrs): 393 | Mean concentration of total radioactivity ([5]; Uveal Tract, 336 Hrs): 19.3 ng equiv./g | AUC ([5]; Uveal Tract, first AUC column): 131346 Ng eq hr/g | T1/2 ([5]; Uveal Tract, listed as [^14C]-tigecycline): 20 h
